Results: patent US11725189B2, “Maintenance culture of induced pluripotent stem cell-derived intestinal stem cells” (PUBLIC UNIVERSITY CORPORATION NAGOYA CITY UNIVERSITY, priority 2017, dated 2023)

How the values were obtained:
[1] = system: mucin 2; experiment: Detection of mucin 2 mRNA (real-time RT-PCR) in human iPS cell-derived intestinal epithelial cells; format: cell-based
Excerpt: (§1) iPS cells were allowed to differentiate into intestinal stem cells, which were then subcultured once. Thereafter, the cells were subjected to a maintenance culture according to the culture method of intestinal stem cells, which had been established in the above-described studies, and were then allowed to differentiate into intestinal epithelial cells.
(§2) After the differentiated intestinal epithelial cells had been recovered, RNA was extracted using Agencourt (registered trademark) RNAdvance™ Tissue Kit, in accordance with the instruction manual included therewith.
(§3) Complementary DNA (cDNA) was synthesized using ReverTra Ace (registered trademark) qPCR RT Master Mix, in accordance with the instruction manual included therewith.
(§4) Real-Time RT-PCR was carried out on cDNA used as a template, using KAPA SYBR Fast qPCR Kit, in accordance with the instruction manual included therewith.

[2] = system: chromogranin A (CgA); experiment: Detection of CgA mRNA (real-time RT-PCR) in human iPS cell-derived intestinal epithelial cells; format: cell-based
Excerpt: as §1, §2, §3, §4

[3] = target: T1, TGF-β receptor ALK4 (Homo sapiens, UniProt P36896); conditions: cited from earlier work
T1 sequence (P36896 24-505): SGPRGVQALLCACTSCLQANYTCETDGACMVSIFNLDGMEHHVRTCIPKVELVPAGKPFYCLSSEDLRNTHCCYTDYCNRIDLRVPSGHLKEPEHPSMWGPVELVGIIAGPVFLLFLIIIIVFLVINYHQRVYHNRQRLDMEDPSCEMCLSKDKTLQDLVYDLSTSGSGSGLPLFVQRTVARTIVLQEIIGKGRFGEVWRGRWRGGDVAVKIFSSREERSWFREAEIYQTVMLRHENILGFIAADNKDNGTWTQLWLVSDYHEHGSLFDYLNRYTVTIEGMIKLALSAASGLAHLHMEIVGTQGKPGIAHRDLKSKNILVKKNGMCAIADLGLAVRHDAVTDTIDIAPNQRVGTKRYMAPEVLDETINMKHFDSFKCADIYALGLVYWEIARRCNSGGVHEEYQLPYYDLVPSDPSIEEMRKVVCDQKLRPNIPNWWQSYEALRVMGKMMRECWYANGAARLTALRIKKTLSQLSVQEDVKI

[4] = target: T2, TGF-β receptor ALK5 (Homo sapiens, UniProt P36897); conditions: cited from earlier work
T2 sequence (P36897 34-503): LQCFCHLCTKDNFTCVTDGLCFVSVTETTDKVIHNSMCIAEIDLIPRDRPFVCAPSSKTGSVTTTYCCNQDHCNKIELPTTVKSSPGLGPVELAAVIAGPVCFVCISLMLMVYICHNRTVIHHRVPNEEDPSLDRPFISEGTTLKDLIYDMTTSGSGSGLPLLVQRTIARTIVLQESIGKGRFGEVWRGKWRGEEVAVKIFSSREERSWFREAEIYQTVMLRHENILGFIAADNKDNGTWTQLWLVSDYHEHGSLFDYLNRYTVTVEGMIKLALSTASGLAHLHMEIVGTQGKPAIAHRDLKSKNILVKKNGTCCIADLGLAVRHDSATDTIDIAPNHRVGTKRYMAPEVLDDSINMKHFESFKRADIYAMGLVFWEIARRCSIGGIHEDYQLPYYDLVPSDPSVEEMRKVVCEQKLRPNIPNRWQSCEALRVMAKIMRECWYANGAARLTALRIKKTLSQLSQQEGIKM

[5] = target: T3, TGF-β receptor ALK7 (Homo sapiens, UniProt Q8NER5); conditions: cited from earlier work
T3 sequence (Q8NER5 21-493): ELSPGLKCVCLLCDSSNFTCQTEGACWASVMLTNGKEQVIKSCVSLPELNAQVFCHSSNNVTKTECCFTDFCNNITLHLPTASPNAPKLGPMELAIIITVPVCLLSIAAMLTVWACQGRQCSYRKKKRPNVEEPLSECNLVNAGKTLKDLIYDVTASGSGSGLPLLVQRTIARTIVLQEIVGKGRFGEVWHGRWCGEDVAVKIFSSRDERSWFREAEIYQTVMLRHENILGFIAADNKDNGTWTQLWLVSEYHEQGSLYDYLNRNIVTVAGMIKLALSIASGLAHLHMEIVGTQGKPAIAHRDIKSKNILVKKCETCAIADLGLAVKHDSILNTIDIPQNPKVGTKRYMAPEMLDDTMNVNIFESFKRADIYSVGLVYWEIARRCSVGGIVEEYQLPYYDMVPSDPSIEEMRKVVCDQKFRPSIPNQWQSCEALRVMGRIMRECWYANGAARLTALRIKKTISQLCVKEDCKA

[6] = 100 μM or 200 μM rebamipide together with 200 μM indomethacin, 6 days

| SMILES | expression level of mucin 2 (mRNA expression level) ([1]; 50 μM, 100 μM and 200 μM added to the medium for 6 days, versus control (Con)) | decrease in the expression of mucin 2 (mRNA expression level) caused by indomethacin [1, 6] | cytotoxicity ([1]; 200 μM added to the medium (R200)) | increase in the expression level of CgA (mRNA expression level) ([2]; 50 μM, 100 μM and 200 μM added to the medium for 6 days) | decrease in the expression level of CgA (mRNA expression level) caused by indomethacin [2, 6] | inhibitory activity against TGF-β receptor ALK4 [3] | inhibitory activity against TGF-β receptor ALK5 [4] | inhibitory activity against TGF-β receptor ALK7 [5] |
| --- | --- | --- | --- | --- | --- | --- | --- | --- |
| O=C(NC(Cc1cc(=O)[nH]c2ccccc12)C(=O)O)c1ccc(Cl)cc1 (centres unmarked) [rebamipide] | increased | tended to be suppressed | likely to cause cytotoxicity | not particularly observed | tended to be suppressed |  |  |  |
| Cc1cccc(-c2nn(C(=S)Nc3ccccc3)cc2-c2ccnc3ccccc23)n1 [A-83-01] |  |  |  |  |  | exhibited inhibitory activity | exhibited inhibitory activity | exhibited inhibitory activity |
